This is an account of results in patent US20120029187A1, “HALOALKYLSULFONANILIDE DERIVATIVE” (Nissan Chemical Industries, Ltd., priority 2009, published 2012).

Type in all cases: in vivo
One series has as its system large crabgrass. Description: Test Example 3: herbicidal effects in soil treatment. The note with it: dose 6.3 g/a. The method in brief: (§1)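 Seeds were sown in sterilized diluvial soil and covered with about 1.5 cm of soil. Compounds, formulated as emulsifiable concentrates and diluted with water, were sprayed evenly over the soil surface at set doses in g/a. Herbicidal effect was scored on a rating scale three weeks later.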

A further series has as its system velvetleaf. Described as above. Particulars: dose 6.3 g/a. The method in brief:
as §1

The next series concerns wild oat. The series is described as above. The note with it: dose 6.3 g/a. The method in brief: as §1
In another series the test system is common ragweed. Described as above. The note with it: dose 6.3 g/a. The method in brief:
as §1

Another series deals with water foxtail. The series is described as above. Particulars: dose 6.3 g/a. The method, boiled down:
as §1

In series [1] the test system is barnyardgrass. The series is described as above. The note with it: dose 6.3 g/a. The method, boiled down:
as §1

The subject of a further series is Italian ryegrass. The description is as above. Particulars: dose 6.3 g/a. The method in brief: as §1
Another series relates to common lambsquater. Described as above. Particulars: dose 6.3 g/a. The method in brief:
as §1

A further series relates to giant foxtail. The description is as above. The note with it: dose 6.3 g/a. The method in brief:
as §1

A further series concerns common chickweed. The series is described as above. The note with it: dose 6.3 g/a. The method in brief: as §1
In a further series the test system is posumbu knotweed. Described as above. Particulars: dose 6.3 g/a. The method, boiled down:
as §1

Series [2] has as its system barnyardgrass. Description: Comparative Example 2: herbicidal effects on barnyardgrass during the vegetation period under submerged conditions. The note with it: applied to water surface at the 2- or 2.5-leaf stage, three weeks after application. On the procedure:
Comparative Example 2 Test on the Herbicidal Effects on Barnyardgrass During the Vegetation Period Under Submerged Conditions Alluvial soil was put in 1/30000-are styrol cups and admixed with water so that it was submerged at a depth of 4 cm. In each cup, seeds of barnyardgrass were sown, and the cups were placed in a greenhouse at 25 to 30° C. to grow the plants. When the barnyardgrass reached the 2- or 2.5-leaf stage, emulsifiable concentrates containing compounds of the present invention and the comparative compounds formulated in accordance with Formulation Example 2 were applied to the water surfaces at predetermined doses after diluted with water. Three weeks after the application, the herbicidal effects were determined on the same evaluation scale as in Test Example 1. The symbol A in the table is the same as defined above.

For series [3], the system named is barnyardgrass. Description: Comparative Example 1: herbicidal effects in preemergence treatment on barnyardgrass under submerged conditions. Particulars: applied to water surface on the day of seeding, three weeks after application. From the text:
Comparative Example 1 Test on the Herbicidal Effects in Preemergence Treatment on Barnyardgrass Under Submerged Conditions Alluvial soil was put in 1/30000-are styrol cups and admixed with water so that it was submerged at a depth of 4 cm. In each cup, seeds of barnyardgrass were sown, and on the same day as the seeding, emulsifiable concentrates containing compounds of the present invention formulated in accordance with Formulation Example 2 were applied to the water surfaces at predetermined doses after diluted with water. The cups were placed in a greenhouse at 25 to 30° C. to grow the plants. Three weeks after the application, the herbicidal effects against barnyardgrass were determined on the following evaluation scale. The symbol A in the table means barnyardgrass.

Series [4] deals with barnyardgrass. Description: Test Example 1: herbicidal effects in preemergence treatment under submerged conditions. Particulars: dose 2.52 g/a. The method, boiled down:
(§2)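 Weed seeds and 2.5-leaf rice seedlings shared each flooded cup of alluvial soil. Dosing, expressed as g per are, was by pouring water-diluted emulsifiable concentrate onto the surface on sowing day. Mortality was graded 0 to 5 after three weeks' growth.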

Series [5] relates to ducksalad. The description is as above. Particulars: dose 2.52 g/a. The method in brief: as §2
Series [6] relates to bulrush. The series is described as above. The note with it: dose 2.52 g/a. The method, boiled down:
as §2

Another series concerns transplanted rice. Description: Test Example 1: preemergence treatment under submerged conditions, effect on crop. The note with it: dose 2.52 g/a. The method, boiled down: as §2
Series [7] concerns barnyardgrass. Nature of the series: Test Example 2: herbicidal effects during the vegetation period under submerged conditions. Particulars: treatment during the vegetation period under submerged conditions; dose 2.52 g/a. The method in brief: (§3)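 Barnyardgrass, bulrush and ducksalad were co-sown in alluvial soil flooded to 4 cm and grown in a greenhouse at 25 to 30° C. At the 1- or 2-leaf stage, water-diluted emulsifiable concentrates went onto the water surface at set doses (g/a). Herbicidal effect was scored three weeks later on a graded scale.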

For series [8], the system named is ducksalad. The description is as above. The note with it: treatment during the vegetation period under submerged conditions; dose 2.52 g/a. The method in brief:
as §3

In series [9] the test system is bulrush. The series is described as above. The note with it: treatment during the vegetation period under submerged conditions; dose 2.52 g/a. The method in brief: as §3

With `CC(C)COC(=O)N(c1ccccc1CN1COCCC1=O)S(=O)(=O)C(F)(F)F` [II-3], the “D: large crabgrass, herbicidal effect (evaluation scale 0-5)” value with large crabgrass is 5 (mortality of 90% or above (nearly complete death)). For the same compound, the “I: velvetleaf, herbicidal effect (evaluation scale 0-5)” value with velvetleaf was 4 (mortality of at least 70% and less than 90%). In addition, the “F: wild oat, herbicidal effect (evaluation scale 0-5)” value with wild oat was 0 (mortality of less than 5% (almost ineffective)). Further, in the series with common ragweed, the “J: common ragweed, herbicidal effect (evaluation scale 0-5)” value is 3 (mortality of at least 40% and less than 70%). Also, in the series with water foxtail, the “G: water foxtail, herbicidal effect (evaluation scale 0-5)” value was 5 (mortality of 90% or above (nearly complete death)). Also, the “A: barnyardgrass, herbicidal effect (evaluation scale 0-5)” value with barnyardgrass [1], with barnyardgrass [4] and in the series on barnyardgrass [7] was 5 (mortality of 90% or above (nearly complete death)) in each case. In addition, in the series with Italian ryegrass, the “H: Italian ryegrass, herbicidal effect (evaluation scale 0-5)” value was 4 (mortality of at least 70% and less than 90%). The “L: common lambsquater, herbicidal effect (evaluation scale 0-5)” value with common lambsquater is 1 (mortality of at least 5% and less than 20%). Also, in the series with giant foxtail, the “E: giant foxtail, herbicidal effect (evaluation scale 0-5)” value is 3 (mortality of at least 40% and less than 70%). Also, in the series with common chickweed, the “N: common chickweed, herbicidal effect (evaluation scale 0-5)” value is 3 (mortality of at least 40% and less than 70%). For the same compound, in the series on posumbu knotweed, the “M: posumbu knotweed, herbicidal effect (evaluation scale 0-5)” value was 1 (mortality of at least 5% and less than 20%). The “herbicidal effect, A (barnyardgrass)” value with barnyardgrass [2] (dose 0.16 g/a) is 0 (mortality of less than 5% (almost ineffective)); in the series with barnyardgrass [2] (dose 0.64 g/a) it was 3 (mortality of at least 40% and less than 70%); in the series with barnyardgrass [2] (dose 2.52 g/a), 5 (mortality of 90% or above (nearly complete death)); in the series with barnyardgrass [3] (dose 0.16 g/a), 5 (mortality of 90% or above (nearly complete death)); with barnyardgrass [3] (dose 0.64 g/a) it was 5 (mortality of 90% or above (nearly complete death)); in the series on barnyardgrass [3] (dose 2.52 g/a), 5 (mortality of 90% or above (nearly complete death)). Besides, the “C: ducksalad, herbicidal effect (evaluation scale 0-5)” value in the series with ducksalad [5] is 5 (mortality of 90% or above (nearly complete death)); in the series with ducksalad [8] it was 4 (mortality of at least 70% and less than 90%). Moreover, the “B: bulrush, herbicidal effect (evaluation scale 0-5)” value in the series with bulrush [6] and in the series on bulrush [9] was 5 (mortality of 90% or above (nearly complete death)) each time. For the same compound, the “a: transplanted rice, effect on crop (evaluation scale 0-5)” value in the series with transplanted rice is 0 (mortality of less than 5% (almost ineffective)).
